ChEMBL document CHEMBL1150741, “Polygodial, an antifungal potentiator” (1988)
Values after ≈ are worked out from the molar mass of the structure shown. Active and inactive are the calls of the source. No cut-off for these calls is given here. Starred links: 1 amine or outer side, 2 acyl side, 3 side chain; linkers in the order of their positions; H or OH if unused. Positions of bridges follow the written chain, without caps; N, C: chain ends. Non-standard residues stand in square brackets, D forms with d. Residues, ends and D or L forms follow the SMILES beside them. Chains are numbered I, II in the order given. Actinocin(9to1) = Cc1c2oc3c(C)ccc(C(=O)[*:1])c3nc-2c(C(=O)[*:2])c(N)c1=O; NMeV = CN[C@H](C(=O)O)C(C)C; Sar = CNCC(=O)O

Legend:
Wickerhamomyces anomalus [1] = experiment: Antimicrobial activity against Hansenula anomala IFO 0136 after 2 days; format: functional; conditions: IFO 0136, 48 h
Staphylococcus aureus = experiment: Antimicrobial activity against Staphylococcus aureus NCTC 8530 after 2 days; format: functional; conditions: NCTC 8530, 48 h
Bacillus subtilis = experiment: Antimicrobial activity against Bacillus subtilis K-49 after 2 days; format: functional; conditions: K-49, 48 h
Micrococcus luteus = experiment: Antimicrobial activity against Micrococcus lysodeikticus IFO 3333 after 2 days; format: functional; conditions: IFO 3333, 48 h
Escherichia coli = experiment: Antimicrobial activity against Escherichia coli IFO 3545 after 2 days; format: functional; conditions: IFO 3545, 48 h
Proteus vulgaris = experiment: Antimicrobial activity against Proteus vulgaris IAM 12003 after 2 days; format: functional; conditions: IAM 12003, 48 h
Pseudomonas aeruginosa = experiment: Antimicrobial activity against Pseudomonas aeruginosa IAM 1007 after 2 days; format: functional; conditions: IAM 1007, 48 h
Saccharomyces cerevisiae [2] = experiment: Antimicrobial activity against Saccharomyces cerevisiae IFO 0203 after 2 days; format: functional; conditions: IFO 0203, 48 h
[3] = test system: Schizosaccharomyces pombe; experiment: Antimicrobial activity against Schizosaccharomyces pombe IFO 0342 after 2 days; format: functional; conditions: IFO 0342, 48 h
Cyberlindnera jadinii [4] = experiment: Antimicrobial activity against Candida utilis ATCC 42402 after 2 days; format: functional; conditions: for MIC: Williopsis jadinii, ATCC 42402, 48 h
Sclerotinia = experiment: Antimicrobial activity against Sclerotinia libertiana SS after 2 days; format: functional; conditions: 48 h
Mucor mucedo = experiment: Antimicrobial activity against Mucor mucedo IFO 7684 after 2 days; format: functional; conditions: IFO 7684, 48 h
[5] = test system: Rhizopus microsporus var. chinensis; experiment: Antimicrobial activity against Rhizopus chinensis IFO 4745 after 2 days; format: functional; conditions: IFO 4745, 48 h
Aspergillus niger = experiment: Antimicrobial activity against Aspergillus niger ATCC 6275 after 2 days; format: functional; conditions: ATCC 6275, 48 h
Penicillium crustosum = experiment: Antimicrobial activity against Penicillium crustosum Thom after 2 days; format: functional; conditions: 48 h
[6] = test system: Schizosaccharomyces pombe; experiment: Antifungal activity against Schizosaccharomyces pombe IFO 0342 in Henneberg medium at pH 7 after 2 days; format: functional; conditions: IFO 0342, 48 h
Cyberlindnera jadinii [7] = experiment: Antifungal activity against Candida utilis ATCC 42402 in Malt Wort medium at pH 5 after 2 days; format: functional; conditions: Williopsis jadinii, ATCC 42402, 48 h
[8] = test system: Schizosaccharomyces pombe; experiment: Antifungal activity against Schizosaccharomyces pombe IFO 0342 in Malt Wort medium at pH 5 after 2 days; format: functional; conditions: IFO 0342, 48 h
Saccharomyces cerevisiae [9] = experiment: Antifungal activity against Saccharomyces cerevisiae IFO 0203 in Henneberg medium at pH 5.2 after 2 days; format: functional; conditions: IFO 0203, 48 h
Cyberlindnera jadinii [10] = experiment: Antifungal activity against Candida utilis ATCC 42402 in Henneberg medium at pH 5.2 after 2 days; format: functional; conditions: Williopsis jadinii, ATCC 42402, 48 h
[11] = test system: Schizosaccharomyces pombe; experiment: Antifungal activity against Schizosaccharomyces pombe IFO 0342 in Henneberg medium at pH 5.2 after 2 days; format: functional; conditions: IFO 0342, 48 h
Saccharomyces cerevisiae [12] = experiment: Antifungal activity against Saccharomyces cerevisiae IFO 0203 in Henneberg medium at pH 7 after 2 days; format: functional; conditions: IFO 0203, 48 h
Cyberlindnera jadinii [13] = experiment: Antifungal activity against Candida utilis ATCC 42402 in Henneberg medium at pH 7 after 2 days; format: functional; conditions: Williopsis jadinii, ATCC 42402, 48 h
Saccharomyces cerevisiae [14] = experiment: Antifungal activity against Saccharomyces cerevisiae IFO 0203 in Henneberg medium at pH 3.1 after 2 days; format: functional; conditions: IFO 0203, 48 h
Cyberlindnera jadinii [15] = experiment: Antifungal activity against Candida utilis ATCC 42402 in Henneberg medium at pH 3.1 after 2 days; format: functional; conditions: Williopsis jadinii, ATCC 42402, 48 h
[16] = test system: Schizosaccharomyces pombe; experiment: Antifungal activity against Schizosaccharomyces pombe IFO 0342 in Henneberg medium at pH 3.1 after 2 days; format: functional; conditions: IFO 0342, 48 h
Saccharomyces cerevisiae [17] = experiment: Antifungal activity against Saccharomyces cerevisiae IFO 0203 assessed as leakage of cellular constituents at 1 to 10 ug/mL by folin reagent method; format: functional, organism-based
Saccharomyces cerevisiae [18] = experiment: Antifungal activity against Saccharomyces cerevisiae IFO 0203 assessed as leakage of cellular constituents at 1 to 10 ug/mL by phenol-sulphuric acid reagent method; format: functional, organism-based
Saccharomyces cerevisiae [19] = experiment: Antifungal activity against Saccharomyces cerevisiae IFO 0203 assessed as organelle disorganization at 50 ug/mL after 10 mins by microscopy; format: functional, organism-based
Saccharomyces cerevisiae [20] = experiment: Antifungal activity against Saccharomyces cerevisiae IFO 0203 assessed as fetal loss of cellular constituents at 50 ug/mL after 10 mins by microscopy; format: functional, organism-based
Wickerhamomyces anomalus [21] = experiment: Antifungal activity against Hansenula anomala IFO 0136 in Henneberg medium at pH 5.2 after 2 days; format: functional; conditions: IFO 0136, 48 h
Wickerhamomyces anomalus [22] = experiment: Antifungal activity against Hansenula anomala IFO 0136 in Henneberg medium at pH 7 after 2 days; format: functional; conditions: IFO 0136, 48 h
Wickerhamomyces anomalus [23] = experiment: Antifungal activity against Hansenula anomala IFO 0136 in Henneberg medium at pH 3.1 after 2 days; format: functional; conditions: IFO 0136, 48 h
Saccharomyces cerevisiae [24] = experiment: Antifungal activity against Saccharomyces cerevisiae IFO 0203 in Malt Wort medium at pH 5 after 2 days; format: functional; conditions: IFO 0203, 48 h
Wickerhamomyces anomalus [25] = experiment: Antifungal activity against Hansenula anomala IFO 0136 in Malt Wort medium at pH 5 after 2 days; format: functional; conditions: IFO 0136, 48 h

`C=C1[C@@H](C)CC[C@@]2(C)[C@H]1CC=C(C=O)[C@]2(O)C=O` was tested, and the MIC (Wickerhamomyces anomalus [1]) was 25 mg/L (≈ 101 µM), the MIC (Staphylococcus aureus) was > 100 mg/L and the MIC (Bacillus subtilis) was > 100 mg/L. For the same compound, the MIC (Micrococcus luteus) was > 100 mg/L, the MIC (Escherichia coli) was > 100 mg/L and the MIC (Proteus vulgaris) was > 100 mg/L. The MIC (Pseudomonas aeruginosa) was > 100 mg/L, the MIC (Saccharomyces cerevisiae [2]) was 1.56 mg/L (≈ 6.28 µM) and the MIC [3] was 25 mg/L (≈ 101 µM). For the same compound, the MIC (Cyberlindnera jadinii [4]) was 3.13 mg/L (≈ 12.6 µM), the MIC (Sclerotinia) was 3.13 mg/L (≈ 12.6 µM) and the MIC (Mucor mucedo) was 25 mg/L (≈ 101 µM). For the same compound, the MIC [5] was 100 mg/L (≈ 403 µM), the MIC (Aspergillus niger) was 50 mg/L (≈ 201 µM) and the MIC (Penicillium crustosum) was 50 mg/L (≈ 201 µM).
For `Cc1c2oc3c(C)ccc(C(=O)N[C@@H]4C(=O)N[C@H](C(C)C)C(=O)N5CCC[C@H]5C(=O)N(C)CC(=O)N(C)[C@@H](C(C)C)C(=O)O[C@@H]4C)c3nc-2c(C(=O)N[C@@H]2C(=O)N[C@H](C(C)C)C(=O)N3CCC[C@H]3C(=O)N(C)CC(=O)N(C)[C@@H](C(C)C)C(=O)O[C@@H]2C)c(N)c1=O` (I: T[dV]P[Sar][NMeV] / II: T[dV]P[Sar][NMeV]; ester I:1-I:C, II:1-II:C; linker I:N-II:N via Actinocin(9to1)), the Activity (Cyberlindnera jadinii [4]) was “inactive”.
In the case of `CC1(C)CCC[C@]2(C)[C@@H](C=O)C(C=O)=CC[C@@H]12` [POLYGODIAL], the MIC [6] is reported as > 25 mg/L, the MIC (Cyberlindnera jadinii [7]) is reported as 1.56 mg/L (≈ 6.66 µM) and the MIC [8] is reported as 6.25 mg/L (≈ 26.7 µM). It also gave an MIC (Saccharomyces cerevisiae [9]) of 1.56 mg/L (≈ 6.66 µM), an MIC (Cyberlindnera jadinii [10]) of 3.13 mg/L (≈ 13.4 µM) and an MIC [11] of 25 mg/L (≈ 107 µM). The MIC (Saccharomyces cerevisiae [12]) was > 25 mg/L, the MIC (Cyberlindnera jadinii [13]) was > 25 mg/L and the MIC (Saccharomyces cerevisiae [14]) was 0.2 mg/L (≈ 0.853 µM). The MIC (Cyberlindnera jadinii [15]) was 0.78 mg/L (≈ 3.33 µM), the MIC [16] was 6.25 mg/L (≈ 26.7 µM) and the Activity (Saccharomyces cerevisiae [17]) was “Active”. For the same compound, the Activity (Saccharomyces cerevisiae [18]) was “Active”, the Activity (Saccharomyces cerevisiae [19]) was “Active” and the Activity (Saccharomyces cerevisiae [20]) was “Active”. The MIC (Wickerhamomyces anomalus [21]) was 6.25 mg/L (≈ 26.7 µM), the MIC (Wickerhamomyces anomalus [22]) was > 25 mg/L and the MIC (Wickerhamomyces anomalus [23]) was 1.56 mg/L (≈ 6.66 µM). The MIC (Saccharomyces cerevisiae [24]) was 0.78 mg/L (≈ 3.33 µM), the MIC (Wickerhamomyces anomalus [25]) was 1.56 mg/L (≈ 6.66 µM) and the MIC (Wickerhamomyces anomalus [1]) was 1.56 mg/L (≈ 6.66 µM). For the same compound, the MIC (Staphylococcus aureus) was > 100 mg/L, the MIC (Bacillus subtilis) was > 100 mg/L and the MIC (Micrococcus luteus) was > 100 mg/L. For the same compound, the MIC (Escherichia coli) was > 100 mg/L, the MIC (Proteus vulgaris) was > 100 mg/L and the MIC (Pseudomonas aeruginosa) was > 100 mg/L. For the same compound, the MIC (Saccharomyces cerevisiae [2]) was 0.78 mg/L (≈ 3.33 µM), the MIC [3] was 6.25 mg/L (≈ 26.7 µM) and the MIC (Cyberlindnera jadinii [4]) was 1.56 mg/L (≈ 6.66 µM). For the same compound, the MIC (Sclerotinia) was 1.56 mg/L (≈ 6.66 µM), the MIC (Mucor mucedo) was 6.25 mg/L (≈ 26.7 µM) and the MIC [5] was 12.5 mg/L (≈ 53.3 µM). For the same compound, the MIC (Aspergillus niger) was 25 mg/L (≈ 107 µM) and the MIC (Penicillium crustosum) was 25 mg/L (≈ 107 µM).
With `CC1(C)CCC[C@@]2(C)[C@H]1CC=C(C=O)[C@]2(O)C=O` [WARBURGANAL] the MIC (Wickerhamomyces anomalus [1]) was 12.5 mg/L (≈ 49.9 µM), the MIC (Staphylococcus aureus) was > 100 mg/L and the MIC (Bacillus subtilis) was > 100 mg/L. The MIC (Micrococcus luteus) was > 100 mg/L, the MIC (Escherichia coli) was > 100 mg/L and the MIC (Proteus vulgaris) was > 100 mg/L. The MIC (Pseudomonas aeruginosa) was > 100 mg/L, the MIC (Saccharomyces cerevisiae [2]) was 3.13 mg/L (≈ 12.5 µM) and the MIC [3] was 12.5 mg/L (≈ 49.9 µM). For the same compound, the MIC (Cyberlindnera jadinii [4]) was 3.13 mg/L (≈ 12.5 µM), the MIC (Sclerotinia) was 3.13 mg/L (≈ 12.5 µM) and the MIC (Mucor mucedo) was 25 mg/L (≈ 99.9 µM). For the same compound, the MIC [5] was 100 mg/L (≈ 399 µM), the MIC (Aspergillus niger) was 50 mg/L (≈ 200 µM) and the MIC (Penicillium crustosum) was 50 mg/L (≈ 200 µM).
